This is an account of results in patent US9579319B2 (Redx Pharma PLC, priority 2013, dated 2017).

Where two headings read alike, the source gives them in different places.

The assay concerns Hedgehog signalling pathway. Nature of the assay: Gli-reporter NIH3T3 luciferase assay (Hedgehog pathway inhibition). Type of assay: cell-based. As to conditions: NIH3T3, Gli-reporter NIH-3T3 cells, recombinant mouse sonic hedgehog, 24 hours, luminescence. Put shortly: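 Mouse NIH3T3 cells with Gli-responsive luciferase reporter, pre-treated 1 h with compound (top final concentration 1 μM, 0.1% DMSO) in 0.5% calf serum medium. Then stimulated with recombinant mouse sonic hedgehog for 24 h at 37° C. Luminescence read-out (OneGLO), triplicates; IC50 reported.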

In the case of `CN(Cc1cccc(C#N)c1)C1CCN(c2nnc(-c3ccnn3C)c3c2CCC3)CC1` [Example 131, 3-[[methyl-[1-[1-(2-methylpyrazol-3-yl)-6,7-dihydro-5H-cyclopenta[d]pyridazin-4-yl]-4-piperidyl]amino]methyl]benzonitrile], the IC50 (read-out: Gli luc IC50) was in the range of 10 to 200 nM.

As to `CN(Cc1ccc(F)cc1C(F)(F)F)C1CCN(c2nnc(-c3ccnn3C)c3c2CCC3)CC1` [Example 132, N-[[4-fluoro-2-(trifluoromethyl)phenyl]methyl]-N-methyl-1-[1-(2-methylpyrazol-3-yl)-6,7-dihydro-5H-cyclopenta[d]pyridazin-4-yl]piperidin-4-amine], the IC50 (read-out: Gli luc IC50) was 10 to 200 nM.

Consider `CN(C(=O)NC(C)(C)C)C1CCN(c2nnc(-c3ccnn3C)c3c2CCC3)CC1` [Example 133, 3-tert-butyl-1-methyl-1-[1-[1-(2-methylpyrazol-3-yl)-6,7-dihydro-5H-cyclopenta[d]pyridazin-4-yl]-4-piperidyl]urea], for which the IC50 (read-out: Gli luc IC50) is 10 to 200 nM. As for `CN(C1CCN(c2nnc(-c3ccnn3C)c3cccnc23)CC1)S(=O)(=O)c1ccc(F)cc1C(F)(F)F` [Example 134, 4-fluoro-N-methyl-N-[1-[5-(2-methylpyrazol-3-yl)pyrido[2,3-d]pyridazin-8-yl]-4-piperidyl]-2-(trifluoromethyl)benzenesulfonamide], where the note is “read-out: Gli luc IC50”, the IC50 lay in the range of 10 to 200 nM.

Consider `CN(Cc1ccc(F)cc1C(F)(F)F)C1CCN(c2nnc(-c3ccnn3C)c3cccnc23)CC1` [Example 135, N-[[4-fluoro-2-(trifluoromethyl)phenyl]methyl]-N-methyl-1-[5-(2-methylpyrazol-3-yl)pyrido[2,3-d]pyridazin-8-yl]piperidin-4-amine], for which, for the setting “read-out: Gli luc IC50”, the IC50 is 10 to 200 nM. As for `CN(C(=O)Nc1ccc(F)cc1F)C1CCN(c2nnc(-c3ccnn3C)c3cccnc23)CC1` [Example 136, 3-(2,4-difluorophenyl)-1-methyl-1-[1-[5-(2-methylpyrazol-3-yl)pyrido[2,3-d]pyridazin-8-yl]-4-piperidyl]urea], for the setting “read-out: Gli luc IC50”, the IC50 was in the range of 10 to 200 nM.

As to `CN(C(=O)Nc1ccc(F)cc1C(F)(F)F)C1CCN(c2nnc(-c3ccnn3C)c3cccnc23)CC1` [Example 137, 3-[4-fluoro-2-(trifluoromethyl)phenyl]-1-methyl-1-[1-[5-(2-methylpyrazol-3-yl)pyrido[2,3-d]pyridazin-8-yl]-4-piperidyl]urea], for the setting “read-out: Gli luc IC50”, the IC50 is < 10 nM. As to `Cn1nccc1-c1nnc(N2CCC(NC(=O)Nc3ccc(F)cc3F)CC2)c2c1CCC2` [Example 138, 1-(2,4-difluorophenyl)-3-[1-[1-(2-methylpyrazol-3-yl)-6,7-dihydro-5H-cyclopenta[d]pyridazin-4-yl]-4-piperidyl]urea], the IC50 (read-out: Gli luc IC50) is 10 to 200 nM. For the compound `CN(Cc1ccc(F)cc1C(F)(F)F)CC1CCN(c2nnc(-c3ccnn3C)c3ccccc23)C1` (stereo not shown) [Example 139, 1-[4-fluoro-2-(trifluoromethyl)phenyl]-N-methyl-N-[[1-[4-(2-methylpyrazol-3-yl)phthalazin-1-yl]pyrrolidin-3-yl]methyl]methanamine], under “read-out: Gli luc IC50”, the IC50 was 10 to 200 nM. For the compound `Cn1nccc1-c1nnc(N2CCC(CNCc3ccc(F)cc3C(F)(F)F)C2)c2ccccc12` (stereo not shown) [Example 140, 1-[4-fluoro-2-(trifluoromethyl)phenyl]-N-[[1-[4-(2-methylpyrazol-3-yl)phthalazin-1-yl]pyrrolidin-3-yl]methyl]methanamine], the IC50 (read-out: Gli luc IC50) is 10 to 200 nM. As to `Cn1nccc1-c1nnc(N2CCC(NS(=O)(=O)c3ccc(F)cc3F)CC2)c2c1CCC2` [Example 141, 2,4-difluoro-N-[1-[1-(2-methylpyrazol-3-yl)-6,7-dihydro-5H-cyclopenta[d]pyridazin-4-yl]-4-piperidyl]benzenesulfonamide], for the setting “read-out: Gli luc IC50”, the IC50 lay in the range of 10 to 200 nM.

With `Cn1nccc1-c1nnc(N2CCC(Nc3ccc(F)cc3C(F)(F)F)CC2)c2c1CCC2` [Example 142, N-[4-fluoro-2-(trifluoromethyl)phenyl]-1-[1-(2-methylpyrazol-3-yl)-6,7-dihydro-5H-cyclopenta[d]pyridazin-4-yl]piperidin-4-amine], the IC50 (read-out: Gli luc IC50) is 10 to 200 nM. Same read-out and setting: to `CC(NC1CCN(c2nnc(-c3ccnn3C)c3ccccc23)CC1)c1ccc(F)cc1C(F)(F)F` (stereo not shown) [Example 143, N-[1-[4-fluoro-2-(trifluoromethyl)phenyl]ethyl]-1-[4-(2-methylpyrazol-3-yl)phthalazin-1-yl]piperidin-4-amine] belongs 10 to 200 nM; to `CN(Cc1ccc(F)cc1C(F)(F)F)C1CCN(c2nnc(N3CCOCC3)c3ccccc23)CC1` [Example 144, N-[[4-fluoro-2-(trifluoromethyl)phenyl]methyl]-N-methyl-1-(4-morpholinophthalazin-1-yl)piperidin-4-amine], > 200 nM; to `Fc1ccc(CNC2CCN(c3nnc(N4CCOCC4)c4ccccc34)CC2)c(C(F)(F)F)c1` [Example 145, N-[[4-fluoro-2-(trifluoromethyl)phenyl]methyl]-1-(4-morpholinophthalazin-1-yl)piperidin-4-amine], > 200 nM. Consider `Cn1nccc1-c1nnc(N2CCC(NCc3ccc(F)cc3C(F)(F)F)CC2)c2ncccc12` [Example 146, N-[[4-fluoro-2-(trifluoromethyl)phenyl]methyl]-1-[5-(2-methylpyrazol-3-yl)pyrido[2,3-d]pyridazin-8-yl]piperidin-4-amine], for which the 50% inhibitory concentration (IC50) (read-out: Gli luc IC50) is > 200 nM.

In the case of `CN(Cc1ncccc1C(F)(F)F)C1CCN(c2nnc(-c3ccnn3C)c3ccccc23)CC1` [Example 147, N-methyl-1-[4-(2-methylpyrazol-3-yl)phthalazin-1-yl]-N-[[3-(trifluoromethyl)-2-pyridyl]methyl]piperidin-4-amine], the IC50 (read-out: Gli luc IC50) was in the range of 10 to 200 nM. With `Cn1nccc1-c1nnc(N2CCC(NCc3ccc(F)cc3C(F)(F)F)CC2)c2c1CCC2` [Example 148, N-[[4-fluoro-2-(trifluoromethyl)phenyl]methyl]-1-[1-(2-methylpyrazol-3-yl)-6,7-dihydro-5H-cyclopenta[d]pyridazin-4-yl]piperidin-4-amine], under “read-out: Gli luc IC50”, the IC50 was 10 to 200 nM. As for `Cn1nccc1-c1nnc(N2CCC(NCc3cccc(C#N)c3)CC2)c2c1CCC2` [Example 149, 3-[[[1-[1-(2-methylpyrazol-3-yl)-6,7-dihydro-5H-cyclopenta[d]pyridazin-4-yl]-4-piperidyl]amino]methyl]benzonitrile], under “read-out: Gli luc IC50”, the IC50 was > 200 nM. Take `Cn1nccc1-c1nnc(N2CCC(NCc3ncccc3C(F)(F)F)CC2)c2ccccc12` [Example 150, 1-[4-(2-methylpyrazol-3-yl)phthalazin-1-yl]-N-[[3-(trifluoromethyl)-2-pyridyl]methyl]piperidin-4-amine]: the 50% inhibitory concentration (IC50) (read-out: Gli luc IC50) fell in the range of 10 to 200 nM.

Regarding `Cc1c(-c2ccnn2C)nnc(N2CCC(N(C)C(=O)Nc3ccc(F)cc3C(F)(F)F)CC2)c1C` [Example 151, 1-[1-[4,5-dimethyl-6-(2-methylpyrazol-3-yl)pyridazin-3-yl]-4-piperidyl]-3-[4-fluoro-2-(trifluoromethyl)phenyl]-1-methyl-urea], the IC50 reads like this: (read-out: Gli Luc nM (IC50)) 5.12 nM; (read-out: Gli luc IC50) < 10 nM.

For `Cc1c(-c2ccnn2C)nnc(N2CCC(N(C)C(=O)NC(C)(C)C)CC2)c1C` [Example 152, 3-tert-butyl-1-[1-[4,5-dimethyl-6-(2-methylpyrazol-3-yl)pyridazin-3-yl]-4-piperidyl]-1-methyl-urea], the IC50 (read-out: Gli luc IC50) is > 200 nM.

`CN(Cc1ccc(F)cc1C(F)(F)F)C1CCN(c2nnc(-c3cnccn3)c3ccccc23)CC1` [Example 153, N-[[4-fluoro-2-(trifluoromethyl)phenyl]methyl]-N-methyl-1-(4-pyrazin-2-ylphthalazin-1-yl)piperidin-4-amine]: the IC50 (read-out: Gli luc IC50) was > 200 nM.

On to `CN(Cc1cnccc1C(F)(F)F)C1CCN(c2nnc(-c3ccnn3C)c3ccccc23)CC1` [Example 154, N-methyl-1-[4-(2-methylpyrazol-3-yl)phthalazin-1-yl]-N-[[4-(trifluoromethyl)-3-pyridyl]methyl]piperidin-4-amine], for which the IC50 (read-out: Gli luc IC50) was < 10 nM.

Take `Cn1nccc1-c1nnc(N2CCC(NCc3cccnc3C(F)(F)F)CC2)c2ccccc12` [Example 155, 1-[4-(2-methylpyrazol-3-yl)phthalazin-1-yl]-N-[[2-(trifluoromethyl)-3-pyridyl]methyl]piperidin-4-amine]: the IC50 (read-out: Gli luc IC50) was < 10 nM. With `CN(Cc1cccnc1C(F)(F)F)C1CCN(c2nnc(-c3ccnn3C)c3ccccc23)CC1` [Example 157, N-methyl-1-[4-(2-methylpyrazol-3-yl)phthalazin-1-yl]-N-[[2-(trifluoromethyl)-3-pyridyl]methyl]piperidin-4-amine], where the note is “read-out: Gli luc IC50”, the half-inhibitory concentration (IC50) is < 10 nM. As for `CN(Cc1ccc(F)cc1Cl)C1CCN(c2nnc(-c3ccnn3C)c3ccccc23)CC1` [Example 158, N-[(2-chloro-4-fluoro-phenyl)methyl]-N-methyl-1-[4-(2-methylpyrazol-3-yl)phthalazin-1-yl]piperidin-4-amine], the IC50 (read-out: Gli luc IC50) is 10 to 200 nM.

In the case of `Cn1nccc1-c1nnc(N2CCC(NS(=O)(=O)c3ccc(F)cc3C(F)(F)F)CC2)c2c1CCC2` [Example 159, 4-fluoro-N-[1-[1-(2-methylpyrazol-3-yl)-6,7-dihydro-5H-cyclopenta[d]pyridazin-4-yl]-4-piperidyl]-2-(trifluoromethyl)benzenesulfonamide], the IC50 (read-out: Gli luc IC50) was < 10 nM. For the compound `CN(Cc1ccc(F)nc1C(F)(F)F)C1CCN(c2nnc(-c3ccnn3C)c3ccccc23)CC1` [Example 160, N-[[6-fluoro-2-(trifluoromethyl)-3-pyridyl]methyl]-N-methyl-1-[4-(2-methylpyrazol-3-yl)phthalazin-1-yl]piperidin-4-amine], for the setting “read-out: Gli luc IC50”, the IC50 is < 10 nM.

Take `Cn1nccc1-c1nnc(N2CCC(NC(=O)NC(C)(C)C)CC2)c2c1CCC2` [Example 161, 1-tert-butyl-3-[1-[1-(2-methylpyrazol-3-yl)-6,7-dihydro-5H-cyclopenta[d]pyridazin-4-yl]-4-piperidyl]urea]: under “read-out: Gli luc IC50”, the IC50 is 10 to 200 nM.

One may read the IC50 as the concentration that inhibits the measured activity by half.
